Measurements published in patent US20050013835A1, “Stable non-dihydrate azithromycin oral suspensions” (Pfizer Inc., priority 2003, published 2005).
Where two headings read alike, the source gives them in different places. Blank lines part the entries; values can stand above or below the compound they belong to.

How the values were obtained:
[1] = Stability of non-dihydrate azithromycin in constituted suspension: conversion to dihydrate (form A) quantified by SS-NMR; format: physicochemical; settings: for rate of conversion to azithromycin dihydrate in POS formulation II suspension as compared to bulk drug suspended in deionized water: 5° C. or 30° C., 1 to 10 days
Protocol: These POS formulations were created by individually weighing each formulation component into a 60-cc High Density Polyethylene (HDPE) bottle with closure. The resulting formulations were then dry-mixed with a Turbula blender (Glen Mills Inc. Maywood, N.J.) for 5 minutes. The powder blends were then constituted with 18 mls of water, shaken for 30 seconds and stored without agitation under controlled temperature conditions.
Upon conclusion of the storage time period the suspensions were filtered and suspended solids collected as described previously.

[2] = Surface tension of aqueous additive solution (Wilhelmy plate or literature); format: physicochemical; settings: aqueous solution at the concentration used in the suspension (1 % w/v), Kruss Tensiometer, Wilhemy plate, room temperature
[3] = Addition of polymeric and surfactant components to slow form F conversion in formulation II (SS-NMR); format: physicochemical; settings: additive level 1 % w/v, 18 ml water, 24 hours room temperature
Protocol: (§1) Upon conclusion of the storage time period the POS samples were filtered using a Buchner funnel in combination with a standard vacuum filtration apparatus. A Millipore prefilter (AP25, 47 mm) was fitted onto the funnel for the collection of suspended solids. Before filtering, the constituted POS sample was poured into a 200 ml volumetric flask and diluted to 200 ml with water. This lowered the viscosity of the sample, facilitating a quick filtration step. With the vacuum on, the diluted POS samples were poured onto the Millipore prefilter. The isolated filtrate remaining on top of the prefilter was then allowed to stand for 2-minutes in order to dry. […] After drying, the collected filtrate was placed into 4 cc Sunbroker vials and analyzed via Solid-State Nuclear Magnetic Resonance (SS-NMR) for quantification of conversion to azithromycin dihydrate (form A).
(§2) Approximately 300 mg of sample were tightly packed into a 7 mm ZrO spinner for each sample analyzed. […]
(§3) Eight pairs of resolved peaks were identified to calibrate ratios of form A in the presence of form G, N, M or F. Integral intensities of all peaks were used as input for the calibration procedure using five different binary mixtures ranging from 3 to 81% of form A with each non-dihydrate form. […] The unknown percentages of form A were then determined from the appropriate calibration graphs. […]

[4] = Addition of polymeric and surfactant components to slow form M conversion in formulation II (SS-NMR); format: physicochemical; settings: additive level 1 % w/v, 18 ml water, 24 hours room temperature
Protocol: as §1, §2, §3

[5] = Effect of sucrose vehicle viscosity on conversion in flavoring-free form G suspensions (SS-NMR); format: physicochemical; settings: 820 mg form G, no flavoring, room temperature
Protocol: (§4) Upon conclusion of the storage time period the POS samples were filtered using a Buchner funnel in combination with a standard vacuum filtration apparatus. A Millipore prefilter (AP25, 47 mm) was fitted onto the funnel for the collection of suspended solids. Before filtering, the constituted POS sample was poured into a 200 ml volumetric flask and diluted to 200 ml with water. This lowered the viscosity of the sample, facilitating a quick filtration step. With the vacuum on, the diluted POS samples were poured onto the Millipore prefilter. The isolated filtrate remaining on top of the prefilter was then allowed to stand for 2-minutes in order to dry. Vacuum was applied to the filtration apparatus during this drying step. Suspensions containing only bulk drug were transferred directly onto the filter paper upon completion of storage, without the described dilution step during sample preparation. After drying, the collected filtrate was placed into 4 cc Sunbroker vials and analyzed via Solid-State Nuclear Magnetic Resonance (SS-NMR) for quantification of conversion to azithromycin dihydrate (form A).
(§5) Approximately 300 mg of sample were tightly packed into a 7 mm ZrO spinner for each sample analyzed. One-dimensional ^13C spectra were collected at ambient pressure using ^1H-^13C cross-polarization magic angle spinning (CPMAS) at 295 K on a Bruker 7 mm BL CPMAS probe positioned into a wide-bore Bruker Avance DSX 500 MHz NMR spectrometer (Bruker BioSpin Corporation; Billerica, Mass.). The samples were spun at 7000 Hz corresponding to the maximum specified spinning speed for the 7 mm spinners. The fast spinning speed minimized the intensities of the spinning side bands. To optimize the signal sensitivity, the cross-polarization contact time was adjusted to 2.3 ms and the decoupling power was set to 65 kHz. Typically, a total of 600 scans were acquired, resulting in approximately a 30 minute acquisition time. The spectra were referenced using an external sample of adamantane with its most upfield resonance set to 29.5 ppm.
(§6) Eight pairs of resolved peaks were identified to calibrate ratios of form A in the presence of form G, N, M or F. Integral intensities of all peaks were used as input for the calibration procedure using five different binary mixtures ranging from 3 to 81% of form A with each non-dihydrate form. From this, one non-linear calibration graph was generated for each pair of peaks and each form. For the experimental samples, only the peaks that were totally void from excipient overlap were preferentially integrated. The unknown percentages of form A were then determined from the appropriate calibration graphs. The final result for each sample analyzed was calculated as a weighted average of the determinations from each resolved peak pair.
(§7) Viscosifying agents were incorporated into POS formulations in the absence of conversion enhancers, such as flavoring components. Specifically, a series of viscous media was prepared by dissolving various amounts of either sucrose or sorbitol in a 0.22 M phosphate buffer solution. Each solution was then adjusted with sodium hydroxide to bring the mixture to a pH of 7.8. The viscosity of each constitution media was measured using a Brookfield digital viscometer (model DV-II) equipped with a 13R sample chamber and #18 spindle. A heating jacket was also used to maintain the 8 ml sample volume to a temperature of 21° C. during measurements. 18 mls of each viscous media were then used to constitute 820 mg of form G azithromycin. The resulting suspensions were stored at room temperature for both 5 and 10-days. Upon conclusion of the storage time period the constituted samples were filtered and analyzed by SS-NMR for quantitation of dihydrate species present.

[6] = Effect of sorbitol vehicle viscosity on conversion in flavoring-free form G suspensions (SS-NMR); format: physicochemical; settings: 820 mg form G, no flavoring, room temperature
Protocol: as §4, §5, §6, §7

[7] = Effect of individual flavorings and sucrose on conversion of form G to form A in pH 8.16 buffer (SS-NMR); format: physicochemical; settings: 820 mg form G + 200 mg flavoring or sucrose, 18 ml pH 8.16 buffer, room temperature
[8] = Literature value (Johnson, Kreuter and Zografi, Colloids and Surfaces 17 (1986) 325-342); cited from earlier work
[9] = Formulation II constituted with 18 ml water, 5° C., day 1
[10] = Formulation II constituted with 18 ml water, 5° C., day 10
[11] = Formulation II constituted with 18 ml water, 30° C., day 1
[12] = Formulation II constituted with 18 ml water, 30° C., day 10
[13] = Bulk drug in 18 ml water, 5° C., day 1
[14] = Bulk drug in 18 ml water, 5° C., day 5
[15] = Bulk drug in 18 ml water, 5° C., day 10
[16] = Bulk drug in 18 ml water, 30° C., day 1
[17] = Bulk drug in 18 ml water, 30° C., day 5
[18] = Bulk drug in 18 ml water, 30° C., day 10
[19] = Formulation II constituted with 18 ml water, 5° C., day 5
[20] = Formulation II constituted with 18 ml water, 30° C., day 5
[21] = 18 ml 0.0 mg/ml sucrose solution pH 7.8, viscosity 1.2 cP
[22] = 18 ml 0.8 mg/ml sucrose solution pH 7.8, viscosity 10.2 cP
[23] = 18 ml 1.1 mg/ml sucrose solution pH 7.8, viscosity 20.2 cP
[24] = 18 ml 1.4 mg/ml sucrose solution pH 7.8, viscosity 41.7 cP
[25] = 18 ml 1.8 mg/ml sucrose solution pH 7.8, viscosity 105.0 cP
[26] = 18 ml 0.0 mg/ml sorbitol solution pH 7.8, viscosity ˜1 cP
[27] = 18 ml 1.02 mg/ml sorbitol solution pH 7.8, viscosity 3.4 cP
[28] = 18 ml 1.54 mg/ml sorbitol solution pH 7.8, viscosity 21.0 cP
[29] = 18 ml 2.04 mg/ml sorbitol solution pH 7.8, viscosity 130.9 cP

% A [1, 9]: 0% | % A [1, 10]: 0% | % A [1, 11]: 0% | % A [1, 12]: 0%
SMILES: CCC1OC(=O)C(C)C(O[C@H]2C[C@@](C)(OC)[C@@H](O)C(C)O2)C(C)[C@@H](OC2OC(C)CC(N(C)C)[C@H]2O)[C@@](C)(O)C[C@@H](C)CN(C)[C@H](C)[C@@H](O)[C@]1(C)O (some centres unmarked) [Form J, azithromycin monohydrate hemi-n-propanol solvate]
rate of conversion to azithromycin dihydrate in POS formulation II suspension as compared to bulk drug suspended in deionized water [1]: did not exhibit a greater conversion rate

SMILES: CCCCCCCCCCCCOS(=O)(=O)[O-].[Na+] [Sodium Lauryl Sulfate]
Surface Tension [2]: 35.8^2 dyne/cm | % Conversion to Form A Relative to the Control Sample [3]: 0% | % Conversion to Form A Relative to the Control Sample [4]: 0%

rate of conversion to azithromycin dihydrate in POS formulation II suspension as compared to bulk drug suspended in deionized water [1]: much greater rates | % A [1, 13]: 0% | % A [1, 14]: 0% | % A [1, 15]: 0% | % A [1, 16]: 0% | % A [1, 17]: 0% | % A [1, 18]: 0% | % A [1, 9]: 23% | % A [1, 19]: 38% | % A [1, 10]: 40% | % A [1, 11]: 28% | % A [1, 20]: 36% | % A [1, 12]: 62%
SMILES: CCC1OC(=O)C(C)C(O[C@H]2C[C@@](C)(OC)[C@@H](O)C(C)O2)C(C)[C@@H](OC2OC(C)CC(N(C)C)[C@H]2O)[C@@](C)(O)C[C@@H](C)CN(C)[C@H](C)[C@@H](O)[C@]1(C)O (some centres unmarked) [Form M, azithromycin monohydrate hemi-isopropanol solvate]

rate of conversion to azithromycin dihydrate in POS formulation II suspension as compared to bulk drug suspended in deionized water [1]: much greater rates | % A [1, 13]: 0% | % A [1, 15]: 0% | % A [1, 16]: 0% | % A [1, 18]: 0% | % A [1, 9]: 6% | % A [1, 10]: 27% | % A [1, 11]: 19% | % A [1, 12]: 31%
SMILES: CCC1OC(=O)C(C)C(O[C@H]2C[C@@](C)(OC)[C@@H](O)C(C)O2)C(C)[C@@H](OC2OC(C)CC(N(C)C)[C@H]2O)[C@@](C)(O)C[C@@H](C)CN(C)[C@H](C)[C@@H](O)[C@]1(C)O (some centres unmarked) [Form F, azithromycin monohydrate hemi-ethanol solvate]

5-day Storage (% Form A) [5, 21]: 20% | 10-day Storage (% Form A) [5, 21]: 55% | 5-day Storage (% Form A) [5, 22]: 5% | 10-day Storage (% Form A) [5, 22]: 12% | 5-day Storage (% Form A) [5, 23]: 5% | 10-day Storage (% Form A) [5, 23]: 6% | 5-day Storage (% Form A) [5, 24]: 1% | 10-day Storage (% Form A) [5, 24]: 3% | 5-day Storage (% Form A) [5, 25]: 0% | 10-day Storage (% Form A) [5, 25]: 0% | 5-day Storage (% Form A) [6, 26]: 35% | 10-day Storage (% Form A) [6, 26]: 100% | 5-day Storage (% Form A) [6, 27]: 7% | 10-day Storage (% Form A) [6, 27]: 7% | 5-day Storage (% Form A) [6, 28]: 0% | 10-day Storage (% Form A) [6, 28]: 0% | 5-day Storage (% Form A) [6, 29]: 0% | 10-day Storage (% Form A) [6, 29]: 0% | rate of conversion to azithromycin dihydrate in POS formulation II suspension as compared to bulk drug suspended in deionized water [1]: much greater rates | % A [1, 13]: 1% | % A [1, 14]: 6% | % A [1, 15]: 12% | % A [1, 16]: 3% | % A [1, 17]: 26% | % A [1, 18]: 73% | % A [1, 9]: 72% | % A [1, 19]: 75% | % A [1, 10]: 78% | % A [1, 11]: 82% | % A [1, 20]: 74% | % A [1, 12]: 76%
SMILES: CC[C@H]1OC(=O)[C@H](C)[C@@H](O[C@H]2C[C@@](C)(OC)[C@@H](O)[C@H](C)O2)[C@H](C)[C@@H](O[C@@H]2O[C@H](C)C[C@H](N(C)C)[C@H]2O)[C@](C)(O)C[C@@H](C)CN(C)[C@H](C)[C@@H](O)[C@]1(C)O [Form G, azithromycin sesquihydrate]

Δ % Form A ([7]; constituted 1 day): 2% | Δ % Form A ([7]; constituted 5 days): 1% | Δ % Form A ([7]; constituted 10 days): 6% | Δ % Form A ([7]; constituted 10 days, listed as sucrose): only minimal conversion to form A
SMILES: OC[C@H]1O[C@@](CO)(O[C@H]2O[C@H](CO)[C@@H](O)[C@H](O)[C@H]2O)[C@@H](O)[C@@H]1O [Sucrose]

SMILES: CCCCCCCCOC(=O)CC(C(=O)OCCCCCCCC)S(=O)(=O)O.[Na] (centres unmarked) [Sodium Dioctyl Sulfosuccinate]
% Conversion to Form A Relative to the Control Sample [3]: 0% | Surface Tension [8]: 25.6^1 dyne/cm | % Conversion to Form A Relative to the Control Sample [4]: 0%
